From publication PMC11187190, “Structural insights into GABAA receptor potentiation by Quaalude” (Nature Communications, 2024)
Where “and” joins values, the source holds several entries; their conditions need not be identical. Equal entries are not always repeated. Entries after “also recorded” stand apart in the source; their conditions may differ. Where two headings read alike, the source gives them in different places.

How the values were obtained:
[1] = tested on: α1M236Wβ2γ2 GABAA receptor; settings: α1M236W, cited from earlier work
β2/3N265M GABAA receptor = settings: cited from earlier work
[2] = tested on: β1-containing GABAA receptors; settings: cited from earlier work
βM286W GABAA receptor = settings: cited from earlier work
[3] = tested on: α1M236Aβ2γ2 GABAA receptor; settings: α1M236A; cited from earlier work
α1β2γ2 GABAA receptor [4] = tested on: α1β2γ2 GABAA receptor; design: method as in Zhu S et al., 2018; settings: ref Zhu S et al., 2018, cited from earlier work
[5] = tested on: β2N265M mutant α1β2γ2 GABAA receptor; assay: Whole-cell patch-clamp electrophysiology, TMD site mutant incl. diazepam competition; format: cell-based; settings: for Effect on potentiation by diazepam (competition assay): diazepam 1 µM, methaqualone 100 µM
Experimental: (§1) Whole-cell voltage-clamp recordings were collected on the adherent HEK293S GnTI^− that were transiently transfected with the tri-cistronic pEZT construct used for structural analyses, as well as with GFP protein in pEZT for selection. The amount of plasmids used for transfection was 0.2–0.6 μg, and transfection was performed according to Lipofectamine2000 manufacturer’s protocol. The protein was expressed for 1–3 days at 30 °C. On the day of recording, cells were plated onto a 35 mm dish and washed with bath solution (140 mM NaCl, 2.4 mM KCl, 4 mM MgCl2, 4 mM CaCl2, 10 mM HEPES pH 7.3, and 10 mM glucose). Borosilicate pipettes were pulled and polished to an initial resistance of 2–4 MΩ. Pipettes were filled with the pipette solution (100 mM CsCl, 30 mM CsF, 10 mM NaCl, 10 mM EGTA, and 20 mM HEPES pH 7.3). Cells were clamped at −75 mV. The recordings were made using an Axopatch 200B amplifier, sampled at 5 kHz, and low pass filtered at 2 kHz using Digidata 1440 A (Molecular Devices), and analyzed with pClamp 10 software (Molecular Devices). Ligand solutions were prepared in a bath solution. A gravity-driven RSC-200 rapid solution changer (Bio-Logic) was used for solution exchange.
Statistical analysis in Fig. 3 and Fig. 4 was performed using GraphPad Prism 9.2.0 software (GraphPad Software, Inc., La Jolla, CA). Data are expressed as means ± standard deviation of at least three recordings from independent cells. The two-tailed Welch’s t-test was used. A p-value of ≤0.05 was considered statistically significant.

[6] = tested on: α1β2N265Mγ2 GABAA receptor; settings: β2N265M, cited from earlier work
[7] = tested on: α1β2M286Aγ2 GABAA receptor; settings: β2M286A; cited from earlier work
[8] = tested on: α1β2M286Wγ2 GABAA receptor; settings: β2M286W, cited from earlier work
α1β2γ2 GABAA receptor [9] = settings: cited from earlier work
[10] = target: T1, α1Y210A/γ2F77A mutant α1β2γ2 GABAA receptor (Homo sapiens, UniProt P14867+P18507+P47870, DEL344-414/DEL362-381/DEL386-444/F116A/F383Q/G341Q/I446A/K384P/R340S/S415R/S417A/V416A/Y237A/Y342P); assay: Whole-cell patch-clamp electrophysiology, benzodiazepine-site double mutant; format: cell-based; settings: 500 µM and 1000 µM methaqualone with GABA EC10, vs cryo-EM construct
T1 construct: twin-strep tag (N); expressed in transfected cells; host or cells: HEK293S GnTI- (text: HEK cells)
T1 sequence (P14867 with tags, fused parts or gaps Y237A/R340S/G341Q/Y342P/DEL344-414/S415R/V416A/S417A): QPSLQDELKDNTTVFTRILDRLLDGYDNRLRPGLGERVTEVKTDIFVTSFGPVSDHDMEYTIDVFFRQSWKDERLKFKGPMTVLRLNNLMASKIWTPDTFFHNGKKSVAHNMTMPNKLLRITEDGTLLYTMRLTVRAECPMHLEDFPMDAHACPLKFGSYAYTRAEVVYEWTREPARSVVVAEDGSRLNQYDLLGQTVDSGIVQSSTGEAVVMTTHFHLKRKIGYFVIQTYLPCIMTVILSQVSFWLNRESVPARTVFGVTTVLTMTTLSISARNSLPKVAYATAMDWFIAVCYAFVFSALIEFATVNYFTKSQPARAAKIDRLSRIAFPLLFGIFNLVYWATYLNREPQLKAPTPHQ
T1 sequence (P47870 with tags, fused parts or gaps): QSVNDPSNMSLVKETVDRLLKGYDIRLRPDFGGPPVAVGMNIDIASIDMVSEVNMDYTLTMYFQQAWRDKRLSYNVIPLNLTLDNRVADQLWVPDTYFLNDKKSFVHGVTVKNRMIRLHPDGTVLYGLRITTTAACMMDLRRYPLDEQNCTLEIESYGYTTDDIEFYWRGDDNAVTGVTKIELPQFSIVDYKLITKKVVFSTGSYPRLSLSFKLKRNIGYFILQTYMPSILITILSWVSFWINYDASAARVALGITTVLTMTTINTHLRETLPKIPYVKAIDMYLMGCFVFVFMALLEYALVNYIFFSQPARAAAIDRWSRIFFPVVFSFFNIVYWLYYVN
T1 sequence (P18507 with tags, fused parts or gaps F116A/DEL362-381/F383Q/K384P/DEL386-444/I446A): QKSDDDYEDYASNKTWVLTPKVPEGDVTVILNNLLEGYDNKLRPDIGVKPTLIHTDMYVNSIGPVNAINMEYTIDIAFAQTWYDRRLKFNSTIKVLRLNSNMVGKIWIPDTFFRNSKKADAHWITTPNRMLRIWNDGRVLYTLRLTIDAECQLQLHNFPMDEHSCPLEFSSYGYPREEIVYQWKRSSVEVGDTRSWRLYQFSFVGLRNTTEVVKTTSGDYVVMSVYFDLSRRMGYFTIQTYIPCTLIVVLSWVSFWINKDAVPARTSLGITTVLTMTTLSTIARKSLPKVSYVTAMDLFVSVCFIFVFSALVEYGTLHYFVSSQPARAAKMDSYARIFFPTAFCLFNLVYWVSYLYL
Experimental: as §1, with “A gravity-driven RSC-200 rapid solution changer (Bio-Logic) was used for solution exchange.” left out
Statistical analysis in Fig. 3 and Fig. 4 was performed using GraphPad Prism 9.2.0 software (GraphPad Software, Inc., La Jolla, CA). Data are expressed as means ± standard deviation of at least three recordings from independent cells. […]

[11] = tested on: α1H102R α1β2γ2 GABAA receptor; settings: 300 µM methaqualone; cited from earlier work
[12] = tested on: α6β2N265Sδ GABAA receptor; settings: β2N265S in α6β2δ, cited from earlier work
[13] = tested on: α6β1S265Nδ GABAA receptor; settings: β1S265N in α6β1δ, cited from earlier work

In the case of `NCCCC(=O)O` [GABA, γ-aminobutyric acid], the “Effect of mutation on receptor sensitivity to GABA” value [1] is listed as “increases receptor sensitivity to GABA”.
For `CC(C)c1cccc(C(C)C)c1O` [propofol], the “Effect of mutation on potentiation” value (β2/3N265M GABAA receptor) is given as “significantly reduces potentiation of propofol”, the “Activity at receptors with serine at the β265 position” value [2] is given as “remain active” and the “Effect of mutation on PAM and agonist activities” value (βM286W GABAA receptor) is given as “detrimental to the PAM and agonist activities”.
In the case of `CCOC(=O)c1cncn1[C@H](C)c1ccccc1` [etomidate], the “Effect of mutation on PAM activity” value [1] is listed as “PAM efficacy plummets”, the “Effect of mutation on direct activation (agonist activity)” value (“Effect of mutation on direct activation” below) [1] is listed as “dramatically more efficacious agonists” and the “Effect of mutation on PAM activity” value [3] is listed as “increases etomidate modulatory efficacy”. For the same molecule, the “Effect of mutation on potentiation” value (β2/3N265M GABAA receptor) was “almost entirely eliminates potentiation by etomidate”, the “Activity at receptors with serine at the β265 position” value [2] was “remain active” and the “Effect of mutation on PAM and agonist activities” value (βM286W GABAA receptor) was “detrimental to the PAM and agonist activities”.
In the case of “Fab: Fab fragment of 1F4 monoclonal antibody against the α1 subunit, used for cryo-EM particle alignment”, the “Effect on flumazenil's activity or binding affinity” value (α1β2γ2 GABAA receptor [4]) is given as “no significant effect” and the “Shift of the EC50 for GABA to the left” value (α1β2γ2 GABAA receptor [4]; weak positive allosteric modulator) is given as 2.5 fold.
With `CN1C(=O)CN=C(c2ccccc2)c2cc(Cl)ccc21` [diazepam] the “Relative current, GABA EC10 + DZ 1uM” value ([5]; N265M, relative to GABA EC10, single recordings, listed as DZ) was 1.349 and 1.602 and 1.299 and 1.556.
For `Cc1ccc(-n2c(-c3ccccc3)nc3ccccc3c2=O)cc1` [PPTQ, 2-phenyl-3-(p-tolyl)-quinazolin-4(3H)-one], the “Effect of mutation on PAM activity” value [1] is listed as “PAM efficacy plummets; also recorded: decreased PAM activity”, the “Effect of mutation on direct activation” value [1] is listed as “dramatically more efficacious agonists; also recorded: Pronounced increase in direct activation” and the “Effect of mutation on PAM activity” value [6] is listed as “reduces the PAM activity of methaqualone and PAM and agonist activities of PPTQ significantly; also recorded: Elimination”. The “Effect of mutation on direct activation” value [6] was “reduces the PAM activity of methaqualone and PAM and agonist activities of PPTQ significantly; also recorded: Elimination”, the “Effect of mutation on PAM activity” value [3] was “negligible effects; also recorded: No significant difference” and the “Effect of mutation on direct activation” value [3] was “negligible effects; also recorded: No significant difference”. The “Effect of mutation on PAM activity” value [7] was “significantly decreases its PAM efficacy; also recorded: decreased PAM activity”, the “Effect of mutation on direct activation” value [7] was “completely abolishes PPTQ agonist activity; also recorded: Elimination of direct activation” and the “Effect of mutation on PAM activity” value [8] was “significantly decreases its PAM efficacy; also recorded: pronounced decrease in PAM activity”. The “Effect of mutation on direct activation” value [8] was “completely abolishes PPTQ agonist activity; also recorded: Elimination of direct activation” and the “Higher modulatory potency (EC50 value) than methaqualone” value (α1β2γ2 GABAA receptor [9]; α1β2γ2 receptor subtype) was ~50 fold.
For `Cc1ccccc1-n1c(C)nc2ccccc2c1=O` [methaqualone, Methaqualone], the “Methaqualone-mediated modulation: effect of the two mutations” value [10] is given as “affected neither”, the “Effect of α1H102R mutation on potentiation” value [11] is given as “not significantly affected” and the “Effect of mutation on PAM activity” value [1] is given as “PAM efficacy plummets”. The “Effect of mutation on direct activation” value [1] was “dramatically more efficacious agonists”, the “Effect of mutation on direct activation” value ([1]; listed as Methaqualone) was “Pronounced increase in direct activation” and the “Effect of mutation on PAM activity” value [6] was “reduces the PAM activity of methaqualone and PAM and agonist activities of PPTQ significantly”. The “Effect of mutation on PAM activity” value ([6]; listed as Methaqualone) was “Almost eliminated PAM activity”, the “Effect of mutation on PAM activity” value [8] was “more subtle decrease” and the “Effect of mutation on PAM activity” value ([8]; listed as Methaqualone) was “Decreased PAM activity”. The “Effect of mutation on PAM activity” value [12] was “from a PAM into a NAM”, the “Effect of mutation on PAM activity” value ([12]; listed as Methaqualone) was “Elimination of PAM activity” and the “Potentiation in the presence of saturating concentrations of flumazenil” value (α1β2γ2 GABAA receptor [9]; 300 µM methaqualone) was “not significantly affected”. For the same molecule, the “Shape of PAM concentration-response curve” value (α1β2γ2 GABAA receptor [9]; decreasing degree of potentiation above 300 µM) was “bell-shaped concentration-response curve”, the Agonist activity (α1β2γ2 GABAA receptor [9]; very high concentrations (200–1000 µM)) was “minute but significant agonist activity” and the “Effect of mutation on PAM activity” value [13] was “from a NAM to a PAM”. The “Effect of mutation on PAM activity” value ([13]; listed as Methaqualone) was “Rescued PAM activity”, the “Effect of β2N265M mutation on methaqualone potentiation” value ([5]; 100 µM methaqualone with GABA EC10) was “most of the methaqualone activity was lost” and the “Effect on receptor activation by GABA” value ([5]; 100 µM methaqualone, β2N265M) was “no measurable effect”. For the same molecule, the “Effect on potentiation by diazepam (competition assay)” value ([5]; β2N265M) was “block much of the PAM activity of diazepam” and the “Effect on potentiation by diazepam (competition assay)” value ([5]; β2N265M, listed as MQ) was “inhibit diazepam potentiation”.
